Results on one molecule are retold here after patent US10800755B2, “2,6-disubstituted pyridine derivative” (Sumitomo Dainippon Pharma Co., Ltd., priority 2017, dated 2020).

Data set [1] can be described thus: Test 3-2: metabolic stability test of human liver microsome (0.5 or 1.0 mg/mL). Conditions: test compound 0.1 μmol/L, 37° C., 30 minutes. In kind it is in vitro ADME. The method, then:
Test 3-2: Metabolic Stability Test of Human Liver Microsome
In order to evaluate the metabolic stability of human liver microsomes more precisely, the stability of the present compounds for human liver microsome metabolism was evaluated with a suitable concentration of human liver microsome, as mentioned below. The used human liver microsome was obtained from Xenontech. Human liver microsome, NADPH, and each test compound were mixed in 25 mmol/L phosphate buffer solution (pH 7.4) to adjust each concentration as shown below, and the mixture was incubated at 37° C. for 30 minutes. • human liver microsome: 0.5 or 1.0 mg/mL • NAPDH: 3.2 mmol/L • test compound: 0.1 μmol/L
The residual ratio of the test compound in each sample after the incubation for 30 minutes was measured with a LC-MS, and the metabolic stability of human liver microsome was calculated about each test compound with the following formula. Metabolic stability of human liver microsome (mL/min/mg protein)=−LN (residual ratio)/“reaction time”/“concentration of human liver microsome”

The next data set addresses human D2 receptor (Homo sapiens (Human), UniProt P14416). Kind of data set: Test 2: binding activity to human D2 receptor ([3H] spiperone, CHO cell membrane). The note with it: [3H] spiperone; read-out: D2 binding affinity (Ki value).
A further data set concerns Wistar male rat. In words: Test 9: microdialysis test (release amount of intracerebral monoamine, orbitofrontal cortex). The format is in vivo. Conditions: combination administration with sertraline or single administration. The method, then:
Test 9: Microdialysis Test
The effect of the present compound for the release amount of intracerebral monoamine was evaluated in a manner mentioned below.
8-Week-old Wistar male rat was fixed on a brain stereotaxic apparatus under anesthesia. The scalp was incised, the subcutaneous tissue was removed, the position of the bregma was measured, and the installation position of a guide cannula was calculated (the position of the orbitofrontal cortex which defined according to the brain stereotaxic coordinates of Paxinos & Watson (2.0 mm right, 4.2 mm anterior from bregma)). The skull was drilled with a dental drill at the installation position of the guide cannula, and an anchor screw was set about 1 cm posterior to the hole. The guide cannula was set and fixed with a dental cement, and then the scalp was sutured. The animal was released from the brain stereotaxic apparatus, and was moved back to the breeding cage. In the event of the test, the rat was put in an acrylic observable cage, and a dialysis probe was inserted along the guide cannula to connect to a free-moving tube. With an infusion pump, Ringer solution was perfused at 2 μL/min, and the dialysis solution was recovered at 20-minute intervals. […] The recovered dialysis solutions were analyzed with a HPLC-ECD system to determine the contents of norepinephrine (NE), dopamine (DA), and serotonin (5-HT).

Data set [2] deals with T1, human D4 receptor (Homo sapiens (Human), UniProt P21917). In words: Test 1: agonistic activity for human D4 receptor (aequorin/Gα16 luminescence in CHO-K1 cell). In kind it is cell-based.
T1 sequence (P21917 whole entry): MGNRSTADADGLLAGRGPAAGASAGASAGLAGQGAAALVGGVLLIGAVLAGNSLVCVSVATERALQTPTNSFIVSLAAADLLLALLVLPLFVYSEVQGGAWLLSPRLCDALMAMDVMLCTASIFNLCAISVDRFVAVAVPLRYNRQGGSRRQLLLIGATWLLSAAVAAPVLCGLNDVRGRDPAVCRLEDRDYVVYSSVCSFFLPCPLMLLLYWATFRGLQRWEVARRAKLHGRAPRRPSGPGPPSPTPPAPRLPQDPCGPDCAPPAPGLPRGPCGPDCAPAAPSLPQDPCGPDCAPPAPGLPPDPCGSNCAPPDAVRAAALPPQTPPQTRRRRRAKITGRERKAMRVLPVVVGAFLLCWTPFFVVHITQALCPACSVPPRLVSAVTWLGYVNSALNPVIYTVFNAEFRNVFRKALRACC
Data set [3] has as its target T2, human 5-HT1A receptor (Homo sapiens (Human), UniProt P08908). Kind of data set: Test 2: binding activity to human 5-HT1A receptor ([3H] 8-OH-DPAT, CHO cell membrane). Conditions: [3H] 8-OH-DPAT; read-out: 5-HT1A binding affinity (Ki value).
In data set [4] the target is T1, human D4 receptor. Kind of data set: Test 2: binding activity to human D4 receptor ([3H] dopamine, CHO cell membrane).
Data set [5] in a line: Test 4-1: predictive test of human half-life (monkey distribution volume, serum unbound fraction, Test 3-1 stability). Conditions: in vivo, predicted using Test 3-1 metabolic stability. The method, then:
Test 4-1: Predictive Test of Human Half-Life
(§1) 0.01 mol/L of the present compound in aqueous hydrochloric acid solution was parenterally administered to cynomolgus monkey. 5 minutes, 15 minutes, 30 minutes, 1 hour, 2 hours, 4 hours, 6 hours, and 24 hours after the administration, the blood was collected. The plasma was obtained from the collected blood, the drug concentration in the plasma was measured with a LC-MS, and the monkey distribution volume was calculated from the transition of the concentrations. The unbound fraction rate of the present compound in serum of human and monkey was measured by equilibrium dialysis method.
Using the monkey distribution volume, the unbound fraction rate in serum of human and monkey, and the result of the metabolic stability of human liver microsome which was obtained in Test 3-1, the half-life in human was calculated according to the formula below. “Human distribution volume”=“monkey distribution volume”×“unbound fraction rate in serum of human”/“unbound fraction rate in serum of monkey” “Human hepatic clearance”=(“human hepatic blood flow”×“unbound fraction rate in serum of human”×56.7×“metabolic stability of human liver microsome”)/(“human hepatic blood flow”+“unbound fraction rate in serum of human”×56.7×“metabolic stability of human liver microsome”) “Half-life in human”=0.693×“human distribution volume”/“human hepatic clearance”

Data set [6] has as its target T2, human 5-HT1A receptor. In words: Test 1: agonistic activity for human 5-HT1A receptor (aequorin/Gα16 luminescence in CHO-K1 cell). The format is cell-based. In a few lines: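 Aequorin and Gα16 transiently co-expressed with each receptor in CHO-K1 cells, cultured 24 h at 37 °C. Compounds added from DMSO solution; agonism read as change in luminescence.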
Data set [7] in a line: Test 4-2: predictive test of human half-life (monkey distribution volume, serum unbound fraction, Test 3-2 stability). Conditions: in vivo, predicted using Test 3-2 metabolic stability. The method, then:
Test 4-2: Predictive Test of Human Half-Life
as §1
Using the monkey distribution volume, the unbound fraction rate in serum of human and monkey, and the result of the metabolic stability of human liver microsome which was obtained in Test 3-2, the half-life in human was calculated according to the formula below. “Human distribution volume”=“monkey distribution volume”×“unbound fraction rate in serum of human”/“unbound fraction rate in serum of monkey” “Human hepatic clearance”=(“human hepatic blood flow”×“unbound fraction rate in serum of human”×56.7×“metabolic stability of human liver microsome”)/(“human hepatic blood flow”+“unbound fraction rate in serum of human”×56.7×“metabolic stability of human liver microsome”) “Half-life in human”=0.693×“human distribution volume”/“human hepatic clearance”

The mark [8] stands for this setting: CHO-K1, 100% = 10 μmol/L endogenous ligand.
[9] abbreviates: CHO-K1 cell, aequorin luminescence.

T2 sequence (P08908 whole entry): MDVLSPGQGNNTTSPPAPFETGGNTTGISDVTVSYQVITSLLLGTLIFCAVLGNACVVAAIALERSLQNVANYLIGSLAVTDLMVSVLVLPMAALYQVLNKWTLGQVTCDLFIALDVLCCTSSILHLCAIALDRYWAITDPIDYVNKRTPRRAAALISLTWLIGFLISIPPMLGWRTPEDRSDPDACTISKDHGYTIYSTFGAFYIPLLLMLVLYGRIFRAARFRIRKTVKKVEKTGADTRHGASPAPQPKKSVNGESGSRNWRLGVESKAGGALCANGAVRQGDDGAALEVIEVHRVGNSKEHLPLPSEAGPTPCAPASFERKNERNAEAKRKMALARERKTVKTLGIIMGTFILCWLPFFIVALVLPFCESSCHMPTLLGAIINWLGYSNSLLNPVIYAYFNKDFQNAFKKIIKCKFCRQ
human D2 receptor, sequence (P14416 whole entry): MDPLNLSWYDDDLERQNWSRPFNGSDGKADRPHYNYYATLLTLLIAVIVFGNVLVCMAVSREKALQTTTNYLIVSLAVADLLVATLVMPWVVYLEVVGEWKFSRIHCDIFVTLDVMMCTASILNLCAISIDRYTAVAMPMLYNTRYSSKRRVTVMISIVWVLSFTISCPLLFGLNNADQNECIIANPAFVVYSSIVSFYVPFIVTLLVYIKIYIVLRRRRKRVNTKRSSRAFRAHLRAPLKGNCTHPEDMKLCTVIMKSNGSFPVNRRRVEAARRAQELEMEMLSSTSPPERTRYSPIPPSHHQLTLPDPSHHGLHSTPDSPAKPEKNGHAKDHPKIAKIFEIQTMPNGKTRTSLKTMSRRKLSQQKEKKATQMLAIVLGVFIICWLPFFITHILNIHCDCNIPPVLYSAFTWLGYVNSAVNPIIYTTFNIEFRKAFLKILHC

With `O=C(NCCN1CCC(c2cccc(C(F)(F)F)n2)CC1)C1CCOCC1` [Example 11, N-(2-{4-[6-(Trifluoromethyl)pyridin-2-yl]piperidin-1-yl}ethyl)-tetrahydro-2H-pyran-4-carboxamide], the “Metabolic stability of human liver microsome” value in [1] was 0.0075 mL/min/mg protein. The Ki at human D2 receptor is greater than 10000 nM; on human 5-HT1A receptor [3] it was 2.1 nM; at human D4 receptor [4] it was 44 nM. In addition, the serotonin content entry in the data set on Wistar male rat is “did not decrease the serotonin content”. The Emax is 56% at human D4 receptor [2] (setting [8]) and 92% on human 5-HT1A receptor [6] (setting [8]). The EC50 amounted to 30.8 nM at human D4 receptor [2] (setting [9]) and 82 nM at human 5-HT1A receptor [6] (setting [9]). The half-life in [5] was 13 h; in data set [7] it was 17 h.
